Measured values from US20250214924A1, “NOVEL COMPOUNDS AND USES THEREOF” (ACTIVON CO., LTD., priority 2022, published 2025).

Experiments:
[1] = test system: HaCaT cells; experiment: antioxidant effect against H2O2 oxidative toxicity (Experimental Example 2); assay type: cell-based, human; conditions: for Number of fluorescent cells (Cell number): untreated 15, H2O2 only 255
[2] = test system: H2O2-induced reactive oxygen species generation; experiment: DCF-DA staining, H2O2-induced reactive oxygen species generation (Experimental Example 3); assay type: cell-based; conditions: for Number of fluorescent cells (Cell number): DCF-DA, untreated 15, H2O2 only 255
Protocol: To investigate the inhibitory effect of the compound prepared in Embodiment 1 on H2O2-induced reactive oxygen species generation, DCF-DA staining was performed, and the results are shown in Table 3, FIG. 4, and FIG. 5 below. In the experiment, […] were seeded at a density of 2×10^5 cells per dish in a 35 pi dish and incubated for 24 hours. Subsequently, the cells were treated with the compound prepared in Embodiment 1 and further incubated for 24 hours. After 10 minutes of loading with 5 mM DCF-DA, the cells were examined under a fluorescence microscope, and the number of DCF-DA fluorescent cells was counted using Image J.

[3] = test system: human keratinocytes (HaCaT cells); experiment: WST-1 assay, cytotoxicity / skin irritation (Experimental Example 1); assay type: cell-based; conditions: for Cell Viability: 24 hours, HaCaT cells, untreated = 100%
Protocol: To confirm whether the compound prepared in Embodiment 1 causes toxicity in skin cells and induces skin irritation, a WST-1 assay was conducted, and the results are shown in Table 1 and FIG. 2 below. In the experiment, human keratinocytes (HaCaT cells) were seeded at a density of 1×10^4 cells per well in a 96-well plate with DMEM (Dulbecco's Modified Eagle Medium) containing 10% FBS (Fetal Bovine Serum) and 1% Antibiotic-Antimycotic, and incubated for 24 hours in a constant temperature chamber at 37° C. with 5% CO2. Subsequently, the cells were treated with the compound prepared in Embodiment 1 and incubated for an additional 24 hours.

[4] = various concentrations, compared to positive control group (H2O2 treatment)

## O=C1O[C@H]([C@@H](O)CO)C(O)=C1O [Ascorbic acid, reference compound]
[1]; H2O2 1 mM + substance 10 uM
  Number of fluorescent cells (Cell number): 170 Cell number
[2]; H2O2 + substance 10 uM
  Number of fluorescent cells (Cell number): 170 Cell number

## O=C(O)/C=C/c1ccc(O)c(O)c1 [Caffeic acid, reference compound]
[1]; H2O2 1 mM + substance 10 uM
  Number of fluorescent cells (Cell number): 250 Cell number
[2]; H2O2 + substance 10 uM
  Number of fluorescent cells (Cell number): 250 Cell number

## O=C(/C=C/c1ccc(O)c(O)c1)OCc1ccc(OC(=O)/C=C/c2ccc(O)c(O)c2)cc1 [Embodiment 1, 4-(((E)-3-(3,4-dihydroxyphenyl)acryloyl)oxy)benzyl (E)-3-(3,4-dihydroxyphenyl)acrylate]
[3]; 5 uM
  Cell Viability: 95.9%
[3]; 10 μM treatment
  change in cell viability: cell viability increased
[3]; 10 uM
  Cell Viability: 118.9%
[3]; concentrations of 5 and 10 μM
  toxicity to Keratinocyte (HaCaT) cells: did not show toxicity
[1]; H2O2 1 mM + substance 5 uM
  Number of fluorescent cells (Cell number): 60 Cell number
[1]; H2O2 1 mM + substance 10 uM
  Number of fluorescent cells (Cell number): 42 Cell number
[1]; [4]
  increase in reactive oxygen species caused by H2O2 treatment: significantly reduced
[2]; H2O2 + substance 5 uM
  Number of fluorescent cells (Cell number): 60 Cell number
[2]; H2O2 + substance 10 uM
  Number of fluorescent cells (Cell number): 42 Cell number
[2]; [4]
  increase in reactive oxygen species caused by H2O2 treatment: significantly reduced
